From ChEMBL document CHEMBL1811872, “Tryptophan 2,3-dioxygenase (TDO) inhibitors. 3-(2-(pyridyl)ethenyl)indoles as potential anticancer immunomodulators” (J Med Chem, 2011)
The source made the active and inactive calls. The calls are words filed in the database; no cut-off is given here.

How the values were obtained:
[1] = target: 5-hydroxytryptamine receptor 1B (Homo sapiens) (UniProt P28222); assay: Displacement of [125I]CYP from human 5HT1B receptor at 10 uM relative to control
[2] = target: 5-hydroxytryptamine receptor 2A (Homo sapiens) (UniProt P28223); assay: Displacement of [3H]ketanserin from human 5HT2A receptor at 10 uM relative to control
[3] = target: Sodium-dependent noradrenaline transporter (Homo sapiens) (UniProt P23975); assay: Displacement of [3H]nisoxetine from human NE transporter at 10 uM relative to control
[4] = Displacement of [3H]prazosin from adrenergic alpha1 receptor at 10 uM relative to control
[5] = target: D(2) dopamine receptor (Homo sapiens) (UniProt P14416); assay: Displacement of [3H]methyl-spiperone from human dopamine D2s receptor at 10 uM relative to control
[6] = target: D(1A) dopamine receptor (Homo sapiens) (UniProt P21728); assay: Displacement of [3H]SCH23390 from human dopamine D1 receptor at 10 uM relative to control
P815B = assay: Antitumor activity against mouse P815B cells expressing TDO xenografted in immunized mouse assessed as tumor growth inhibition at 160 mg/kg/day, po administered with water; assay type: functional, organism-based
[7] = target: 5-hydroxytryptamine receptor 7 (Homo sapiens) (UniProt P34969); assay: Displacement of [3H]LSD from human 5HT7 receptor at 10 uM relative to control
[8] = target: 5-hydroxytryptamine receptor 5A (Homo sapiens) (UniProt P47898); assay: Displacement of [3H]LSD from human 5HT5A receptor at 10 uM relative to control
[9] = target: 5-hydroxytryptamine receptor 6 (Homo sapiens) (UniProt P50406); assay: Displacement of [3H]LSD from human 5HT6 receptor at 10 uM relative to control
[10] = target: Melatonin receptor type 1A (Homo sapiens) (UniProt P48039); assay: Displacement of [125I]2-iodomelatonin from human MT1 receptor at 10 uM relative to control
[11] = target: T1, 5-hydroxytryptamine receptor 3A (Homo sapiens) (UniProt P46098); assay: Displacement of [3H]BRL43694 from human 5HT3 receptor at 10 uM relative to control
T1 sequence (whole entry): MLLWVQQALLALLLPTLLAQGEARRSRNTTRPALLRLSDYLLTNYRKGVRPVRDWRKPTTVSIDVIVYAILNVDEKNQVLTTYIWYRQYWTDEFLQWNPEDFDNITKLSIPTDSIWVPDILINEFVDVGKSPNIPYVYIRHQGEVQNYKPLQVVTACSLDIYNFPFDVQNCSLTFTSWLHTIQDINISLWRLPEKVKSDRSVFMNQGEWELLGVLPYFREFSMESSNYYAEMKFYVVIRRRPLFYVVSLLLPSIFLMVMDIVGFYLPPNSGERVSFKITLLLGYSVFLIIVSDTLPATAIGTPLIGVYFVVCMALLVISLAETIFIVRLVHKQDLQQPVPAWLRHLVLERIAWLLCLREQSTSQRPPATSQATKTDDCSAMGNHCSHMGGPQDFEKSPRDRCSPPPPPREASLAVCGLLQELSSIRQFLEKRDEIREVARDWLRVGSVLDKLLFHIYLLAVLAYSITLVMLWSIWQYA

[12] = target: Indoleamine 2,3-dioxygenase 1 (Homo sapiens) (UniProt P14902); assay: Inhibition of IDO at 10 uM
[13] = target: 5-hydroxytryptamine receptor 2B (Homo sapiens) (UniProt P41595); assay: Displacement of [125I](+/-)-DOI from human 5HT2B receptor at 10 uM relative to control
[14] = target: Beta-2 adrenergic receptor (Homo sapiens) (UniProt P07550); assay: Displacement of [3H](-)-CGP12177 from human adrenergic beta2 receptor at 10 uM relative to control
[15] = target: Sodium-dependent dopamine transporter (Homo sapiens) (UniProt Q01959); assay: Displacement of [3H]BTCP from human DA transporter at 10 uM relative to control
[16] = target: T2, 5-hydroxytryptamine receptor 1A (Homo sapiens) (UniProt P08908); assay: Displacement of [3H]8-OH-DPAT from human 5HT1A receptor at 10 uM relative to control
T2 sequence (whole entry): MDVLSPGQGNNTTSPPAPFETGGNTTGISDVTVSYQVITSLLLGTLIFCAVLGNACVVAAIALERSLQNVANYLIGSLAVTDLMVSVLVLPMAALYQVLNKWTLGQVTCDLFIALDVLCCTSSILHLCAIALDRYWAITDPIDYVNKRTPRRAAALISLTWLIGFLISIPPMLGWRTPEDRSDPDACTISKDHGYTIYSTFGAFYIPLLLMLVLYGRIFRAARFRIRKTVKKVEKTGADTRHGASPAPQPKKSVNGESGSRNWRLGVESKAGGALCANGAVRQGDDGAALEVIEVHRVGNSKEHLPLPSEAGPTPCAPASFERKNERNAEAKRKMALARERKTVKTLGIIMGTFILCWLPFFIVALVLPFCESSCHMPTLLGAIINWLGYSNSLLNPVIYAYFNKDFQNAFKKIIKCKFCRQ

[17] = Displacement of [3H]RX821002 from adrenergic alpha2 receptor at 10 uM relative to control
[18] = target: Beta-1 adrenergic receptor (Homo sapiens) (UniProt P08588); assay: Displacement of [3H](-)-CGP12177 from human adrenergic beta1 receptor at 10 uM relative to control
[19] = target: Sodium-dependent serotonin transporter (Homo sapiens) (UniProt P31645); assay: Displacement of [3H]imipramine from human 5HT transporter at 10 uM relative to control
Chain of Sodium-dependent serotonin transporter (Homo sapiens) (P31645 whole entry, looked up): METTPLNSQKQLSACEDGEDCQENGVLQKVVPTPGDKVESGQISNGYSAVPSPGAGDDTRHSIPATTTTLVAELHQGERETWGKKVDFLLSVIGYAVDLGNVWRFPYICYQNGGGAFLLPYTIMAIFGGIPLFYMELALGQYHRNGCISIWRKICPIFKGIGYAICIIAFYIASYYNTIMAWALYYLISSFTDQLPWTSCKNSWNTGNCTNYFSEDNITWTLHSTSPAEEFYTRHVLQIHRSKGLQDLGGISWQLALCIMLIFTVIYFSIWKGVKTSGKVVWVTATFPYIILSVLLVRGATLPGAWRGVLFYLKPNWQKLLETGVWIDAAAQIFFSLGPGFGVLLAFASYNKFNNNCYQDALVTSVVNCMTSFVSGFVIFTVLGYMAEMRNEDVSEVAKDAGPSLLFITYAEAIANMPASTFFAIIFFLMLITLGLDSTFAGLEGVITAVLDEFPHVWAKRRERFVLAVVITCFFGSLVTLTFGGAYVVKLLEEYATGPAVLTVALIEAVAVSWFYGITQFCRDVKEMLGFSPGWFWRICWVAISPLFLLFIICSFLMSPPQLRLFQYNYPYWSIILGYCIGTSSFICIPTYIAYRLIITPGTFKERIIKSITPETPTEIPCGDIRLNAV

Chain of D(2) dopamine receptor (Homo sapiens) (P14416 whole entry): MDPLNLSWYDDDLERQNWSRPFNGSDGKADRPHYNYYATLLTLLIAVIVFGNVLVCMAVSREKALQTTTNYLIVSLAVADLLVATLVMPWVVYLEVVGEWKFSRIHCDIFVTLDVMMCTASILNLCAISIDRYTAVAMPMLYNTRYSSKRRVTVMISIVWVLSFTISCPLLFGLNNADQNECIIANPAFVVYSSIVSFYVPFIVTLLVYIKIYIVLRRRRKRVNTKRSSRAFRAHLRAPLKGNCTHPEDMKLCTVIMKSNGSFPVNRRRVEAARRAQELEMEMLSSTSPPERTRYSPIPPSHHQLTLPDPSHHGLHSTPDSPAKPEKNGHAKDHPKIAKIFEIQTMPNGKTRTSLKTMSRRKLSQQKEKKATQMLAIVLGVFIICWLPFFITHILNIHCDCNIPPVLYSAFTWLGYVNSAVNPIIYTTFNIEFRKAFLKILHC
Chain of 5-hydroxytryptamine receptor 5A (Homo sapiens) (P47898 whole entry): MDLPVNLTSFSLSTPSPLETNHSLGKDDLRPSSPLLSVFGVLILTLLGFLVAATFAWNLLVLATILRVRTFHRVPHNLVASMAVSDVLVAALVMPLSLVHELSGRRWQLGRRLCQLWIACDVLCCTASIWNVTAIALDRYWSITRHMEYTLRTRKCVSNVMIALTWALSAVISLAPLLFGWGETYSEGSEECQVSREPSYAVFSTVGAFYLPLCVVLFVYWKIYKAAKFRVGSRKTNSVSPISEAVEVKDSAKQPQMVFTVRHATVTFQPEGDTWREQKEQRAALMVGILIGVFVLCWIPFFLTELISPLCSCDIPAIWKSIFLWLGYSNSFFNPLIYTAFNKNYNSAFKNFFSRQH
Chain of Indoleamine 2,3-dioxygenase 1 (Homo sapiens) (P14902 whole entry, looked up): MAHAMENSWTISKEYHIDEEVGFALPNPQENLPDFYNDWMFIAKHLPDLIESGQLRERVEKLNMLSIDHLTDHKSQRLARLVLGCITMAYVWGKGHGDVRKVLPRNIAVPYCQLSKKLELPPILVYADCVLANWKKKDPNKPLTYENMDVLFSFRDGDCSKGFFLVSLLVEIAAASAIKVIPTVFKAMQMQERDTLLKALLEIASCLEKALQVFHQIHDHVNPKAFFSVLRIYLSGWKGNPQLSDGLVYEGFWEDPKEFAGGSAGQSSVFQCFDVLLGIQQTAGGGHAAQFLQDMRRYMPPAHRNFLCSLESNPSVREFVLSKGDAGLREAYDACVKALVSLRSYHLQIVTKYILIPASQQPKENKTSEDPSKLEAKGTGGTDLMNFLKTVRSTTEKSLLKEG
Chain of D(1A) dopamine receptor (Homo sapiens) (P21728 whole entry): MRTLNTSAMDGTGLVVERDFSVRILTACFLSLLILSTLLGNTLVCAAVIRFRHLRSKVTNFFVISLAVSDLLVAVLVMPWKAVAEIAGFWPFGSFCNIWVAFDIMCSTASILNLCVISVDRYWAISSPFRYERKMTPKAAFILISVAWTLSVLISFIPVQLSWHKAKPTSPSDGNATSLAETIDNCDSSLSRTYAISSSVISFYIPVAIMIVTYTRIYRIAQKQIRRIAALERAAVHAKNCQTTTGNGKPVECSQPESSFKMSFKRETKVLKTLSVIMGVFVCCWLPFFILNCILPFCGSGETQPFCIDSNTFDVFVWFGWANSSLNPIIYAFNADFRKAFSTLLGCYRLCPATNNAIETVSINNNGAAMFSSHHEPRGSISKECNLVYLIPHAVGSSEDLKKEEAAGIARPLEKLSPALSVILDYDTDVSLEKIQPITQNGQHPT
Chain of Beta-2 adrenergic receptor (Homo sapiens) (P07550 whole entry, looked up): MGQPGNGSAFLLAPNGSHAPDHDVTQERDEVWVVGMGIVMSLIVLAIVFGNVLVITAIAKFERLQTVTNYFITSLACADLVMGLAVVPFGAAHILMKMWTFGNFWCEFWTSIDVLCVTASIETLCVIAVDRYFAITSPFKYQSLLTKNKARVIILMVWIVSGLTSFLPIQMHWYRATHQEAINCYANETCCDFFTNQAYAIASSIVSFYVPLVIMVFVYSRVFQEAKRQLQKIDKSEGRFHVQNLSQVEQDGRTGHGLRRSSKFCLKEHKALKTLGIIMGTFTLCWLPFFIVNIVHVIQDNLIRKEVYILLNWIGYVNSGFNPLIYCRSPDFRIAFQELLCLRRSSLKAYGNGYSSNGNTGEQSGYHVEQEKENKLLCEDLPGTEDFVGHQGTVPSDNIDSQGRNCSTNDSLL
Chain of Beta-1 adrenergic receptor (Homo sapiens) (P08588 whole entry, looked up): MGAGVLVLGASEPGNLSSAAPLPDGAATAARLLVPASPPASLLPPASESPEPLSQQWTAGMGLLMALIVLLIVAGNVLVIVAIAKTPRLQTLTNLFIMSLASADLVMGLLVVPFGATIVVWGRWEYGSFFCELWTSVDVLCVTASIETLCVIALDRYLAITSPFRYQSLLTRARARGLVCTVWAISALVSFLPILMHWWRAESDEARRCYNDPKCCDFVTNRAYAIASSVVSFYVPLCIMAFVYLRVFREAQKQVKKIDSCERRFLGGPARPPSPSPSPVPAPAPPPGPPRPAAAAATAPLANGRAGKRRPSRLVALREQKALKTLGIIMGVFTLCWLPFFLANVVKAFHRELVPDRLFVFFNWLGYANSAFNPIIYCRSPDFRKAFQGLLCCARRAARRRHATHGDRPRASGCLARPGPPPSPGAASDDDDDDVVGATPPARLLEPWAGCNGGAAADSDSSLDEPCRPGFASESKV
Chain of Melatonin receptor type 1A (Homo sapiens) (P48039 whole entry): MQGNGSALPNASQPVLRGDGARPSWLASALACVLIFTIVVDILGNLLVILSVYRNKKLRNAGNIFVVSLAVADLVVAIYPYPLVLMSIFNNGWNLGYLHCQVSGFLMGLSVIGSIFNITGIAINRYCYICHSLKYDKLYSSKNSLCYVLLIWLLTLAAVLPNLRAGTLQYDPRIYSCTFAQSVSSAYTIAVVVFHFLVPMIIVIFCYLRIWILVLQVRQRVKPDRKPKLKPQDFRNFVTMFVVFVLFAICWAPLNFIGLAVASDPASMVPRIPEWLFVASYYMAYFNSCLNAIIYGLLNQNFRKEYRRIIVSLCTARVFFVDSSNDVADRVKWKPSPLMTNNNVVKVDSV
Chain of 5-hydroxytryptamine receptor 1B (Homo sapiens) (P28222 whole entry): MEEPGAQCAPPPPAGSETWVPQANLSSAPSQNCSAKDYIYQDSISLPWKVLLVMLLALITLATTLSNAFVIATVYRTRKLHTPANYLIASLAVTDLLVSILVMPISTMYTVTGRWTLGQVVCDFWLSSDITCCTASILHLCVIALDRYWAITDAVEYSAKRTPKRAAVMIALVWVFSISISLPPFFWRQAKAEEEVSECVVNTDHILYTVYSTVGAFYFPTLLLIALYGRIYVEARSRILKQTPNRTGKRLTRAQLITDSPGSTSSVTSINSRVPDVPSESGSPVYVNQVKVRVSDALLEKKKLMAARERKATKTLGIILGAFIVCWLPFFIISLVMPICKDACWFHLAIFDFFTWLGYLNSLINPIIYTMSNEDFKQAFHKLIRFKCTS
Chain of Sodium-dependent dopamine transporter (Homo sapiens) (Q01959 whole entry): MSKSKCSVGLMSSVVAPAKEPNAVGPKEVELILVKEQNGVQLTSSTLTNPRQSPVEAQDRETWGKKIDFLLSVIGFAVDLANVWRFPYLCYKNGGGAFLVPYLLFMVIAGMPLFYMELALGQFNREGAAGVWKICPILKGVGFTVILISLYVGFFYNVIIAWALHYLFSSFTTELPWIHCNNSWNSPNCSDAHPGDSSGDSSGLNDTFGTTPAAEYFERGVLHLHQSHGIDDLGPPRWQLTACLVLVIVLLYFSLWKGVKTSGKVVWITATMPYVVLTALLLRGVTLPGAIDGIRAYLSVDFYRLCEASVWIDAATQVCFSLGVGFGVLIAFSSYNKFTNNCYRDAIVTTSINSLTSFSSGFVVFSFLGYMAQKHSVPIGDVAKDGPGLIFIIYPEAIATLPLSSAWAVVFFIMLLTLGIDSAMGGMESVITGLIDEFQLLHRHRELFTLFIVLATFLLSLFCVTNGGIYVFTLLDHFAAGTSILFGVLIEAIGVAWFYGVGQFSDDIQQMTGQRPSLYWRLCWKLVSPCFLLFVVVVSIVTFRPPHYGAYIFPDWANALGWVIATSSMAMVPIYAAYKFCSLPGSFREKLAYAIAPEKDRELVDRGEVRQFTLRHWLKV
Chain of 5-hydroxytryptamine receptor 6 (Homo sapiens) (P50406 whole entry): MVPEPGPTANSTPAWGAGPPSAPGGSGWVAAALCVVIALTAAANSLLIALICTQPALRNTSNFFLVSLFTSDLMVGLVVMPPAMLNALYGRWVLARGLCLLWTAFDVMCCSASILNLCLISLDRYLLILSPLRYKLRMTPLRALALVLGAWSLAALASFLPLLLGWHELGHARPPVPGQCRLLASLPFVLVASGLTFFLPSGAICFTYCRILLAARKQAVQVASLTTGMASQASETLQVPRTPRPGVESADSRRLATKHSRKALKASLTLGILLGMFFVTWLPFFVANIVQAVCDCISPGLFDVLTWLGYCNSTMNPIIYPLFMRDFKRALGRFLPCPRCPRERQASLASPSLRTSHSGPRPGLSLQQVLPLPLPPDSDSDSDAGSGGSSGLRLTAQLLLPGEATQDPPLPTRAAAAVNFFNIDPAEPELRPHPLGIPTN

For `Fc1ccc2c(/C=C/c3nnn[nH]3)c[nH]c2c1`, the inhibition [1] was under 10%, the inhibition [2] was under 10% and the inhibition [3] was under 10%. It also gave an inhibition [4] of under 10%, an inhibition [5] of under 10% and an inhibition [6] of under 10%. The Activity (P815B) was “Active”, the inhibition [7] was under 10% and the inhibition [8] was under 10%. The inhibition [9] was under 10%, the inhibition [10] was under 10% and the inhibition [11] was under 10%. It also gave an inhibition [12] of under 10%, an inhibition [13] of under 10% and an inhibition [14] of under 10%. The inhibition [15] was under 10%, the inhibition [16] was under 10% and the inhibition [17] was under 10%. It also gave an inhibition [18] of 14% and an inhibition [19] of 26%.
